ChEMBL document CHEMBL1143353, “Pyrazolo[1,5-a]-1,3,5-triazine as a purine bioisostere: access to potent cyclin-dependent kinase inhibitor (R)-roscovitine analogue” (J Med Chem, 2009)

Experiments:
[1] = Inhibition of starfish oocytes CDK1/cyclin B; set-up: species or system Marthasterias glacialis; details: oocyte
[2] = target: Cyclin-dependent kinase 2 (Homo sapiens, UniProt P24941); experiment: Inhibition of human recombinant CDK2/cyclin A expressed in baculovirus-infected insect cells
[3] = target: Cyclin-dependent kinase 5/CDK5 activator 1 (Homo sapiens, UniProt Q00535)
Description: Inhibition of human recombinant CDK5/p25 expressed in Escherichia coli

[4] = target: Cyclin-dependent kinase 7/ cyclin H (Homo sapiens, UniProt P50613); experiment: Inhibition of human recombinant CDK7/cyclin H expressed in baculovirus-infected insect cells
CDK9/cyclin T1 = CDK9/cyclin T1 (Homo sapiens, UniProt P50750); experiment: Inhibition of human recombinant CDK9/cyclin T expressed in baculovirus-infected insect cells
SH-SY5Y = experiment: Antiproliferative activity against human SH-SY5Y cells after 48 hrs by MTS reduction assay; format: functional, cell-based
HEK293 = experiment: Antiproliferative activity against human HEK293 cells after 48 hrs by MTS reduction assay; format: cell-based; details: HEK293, 48 h

Cyclin-dependent kinase 5/CDK5 activator 1, sequence (Q00535 whole entry): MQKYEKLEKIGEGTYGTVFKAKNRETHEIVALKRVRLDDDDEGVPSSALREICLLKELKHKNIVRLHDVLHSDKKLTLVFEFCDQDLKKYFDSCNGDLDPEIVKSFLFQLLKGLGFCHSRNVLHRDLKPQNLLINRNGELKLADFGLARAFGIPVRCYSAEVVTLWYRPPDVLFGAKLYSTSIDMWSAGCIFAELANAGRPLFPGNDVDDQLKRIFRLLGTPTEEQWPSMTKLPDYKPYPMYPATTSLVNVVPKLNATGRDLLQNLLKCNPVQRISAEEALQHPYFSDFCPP
Cyclin-dependent kinase 5/CDK5 activator 1, sequence (Q15078 whole entry, further chain): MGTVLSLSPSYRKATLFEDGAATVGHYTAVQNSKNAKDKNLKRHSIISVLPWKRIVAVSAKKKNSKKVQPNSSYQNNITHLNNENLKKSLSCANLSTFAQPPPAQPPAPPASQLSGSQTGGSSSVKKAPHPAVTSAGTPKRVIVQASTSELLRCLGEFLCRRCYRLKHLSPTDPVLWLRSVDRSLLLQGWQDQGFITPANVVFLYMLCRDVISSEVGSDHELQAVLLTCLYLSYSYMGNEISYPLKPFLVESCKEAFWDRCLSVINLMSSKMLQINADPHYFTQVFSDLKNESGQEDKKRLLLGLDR
CDK9/cyclin T1, sequence (O60563 whole entry): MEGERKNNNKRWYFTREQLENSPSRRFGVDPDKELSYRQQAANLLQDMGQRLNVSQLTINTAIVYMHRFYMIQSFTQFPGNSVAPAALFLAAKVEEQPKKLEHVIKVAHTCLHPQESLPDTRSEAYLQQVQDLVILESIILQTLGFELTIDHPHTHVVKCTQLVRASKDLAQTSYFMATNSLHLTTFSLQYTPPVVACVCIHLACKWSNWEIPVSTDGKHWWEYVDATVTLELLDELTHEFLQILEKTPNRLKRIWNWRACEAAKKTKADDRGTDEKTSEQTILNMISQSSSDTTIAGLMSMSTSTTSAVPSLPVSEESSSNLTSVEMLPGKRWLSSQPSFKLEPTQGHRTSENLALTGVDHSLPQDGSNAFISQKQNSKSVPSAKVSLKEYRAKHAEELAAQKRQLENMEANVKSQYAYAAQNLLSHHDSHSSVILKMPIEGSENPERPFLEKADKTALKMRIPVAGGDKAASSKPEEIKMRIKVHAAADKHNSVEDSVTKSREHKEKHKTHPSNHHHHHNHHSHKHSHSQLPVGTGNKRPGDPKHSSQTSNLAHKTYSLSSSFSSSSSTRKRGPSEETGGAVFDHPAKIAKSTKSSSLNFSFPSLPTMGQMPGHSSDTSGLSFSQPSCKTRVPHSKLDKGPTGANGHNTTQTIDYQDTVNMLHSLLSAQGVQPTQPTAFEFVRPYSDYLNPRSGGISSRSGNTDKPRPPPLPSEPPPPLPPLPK
CDK9/cyclin T1, sequence (P50750 whole entry): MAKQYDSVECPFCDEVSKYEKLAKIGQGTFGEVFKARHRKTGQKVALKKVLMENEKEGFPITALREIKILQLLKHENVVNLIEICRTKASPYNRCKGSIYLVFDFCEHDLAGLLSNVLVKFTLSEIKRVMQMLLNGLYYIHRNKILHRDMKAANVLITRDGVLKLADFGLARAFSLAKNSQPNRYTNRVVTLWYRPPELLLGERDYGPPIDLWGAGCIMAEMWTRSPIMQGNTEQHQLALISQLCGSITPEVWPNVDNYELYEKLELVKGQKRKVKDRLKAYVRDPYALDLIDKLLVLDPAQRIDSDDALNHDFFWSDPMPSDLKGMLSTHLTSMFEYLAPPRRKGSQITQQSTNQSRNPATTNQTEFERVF
Cyclin-dependent kinase 7/ cyclin H, sequence (P51946 whole entry): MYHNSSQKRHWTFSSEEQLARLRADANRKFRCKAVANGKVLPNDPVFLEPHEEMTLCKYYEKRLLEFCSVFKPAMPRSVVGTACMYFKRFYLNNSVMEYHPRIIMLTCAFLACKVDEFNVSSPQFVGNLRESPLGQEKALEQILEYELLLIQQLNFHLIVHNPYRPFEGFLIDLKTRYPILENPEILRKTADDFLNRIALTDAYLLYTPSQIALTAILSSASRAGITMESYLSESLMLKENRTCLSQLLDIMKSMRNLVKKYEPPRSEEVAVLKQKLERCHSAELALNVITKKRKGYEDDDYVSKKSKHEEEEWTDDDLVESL
Cyclin-dependent kinase 7/ cyclin H, sequence (P50613 whole entry): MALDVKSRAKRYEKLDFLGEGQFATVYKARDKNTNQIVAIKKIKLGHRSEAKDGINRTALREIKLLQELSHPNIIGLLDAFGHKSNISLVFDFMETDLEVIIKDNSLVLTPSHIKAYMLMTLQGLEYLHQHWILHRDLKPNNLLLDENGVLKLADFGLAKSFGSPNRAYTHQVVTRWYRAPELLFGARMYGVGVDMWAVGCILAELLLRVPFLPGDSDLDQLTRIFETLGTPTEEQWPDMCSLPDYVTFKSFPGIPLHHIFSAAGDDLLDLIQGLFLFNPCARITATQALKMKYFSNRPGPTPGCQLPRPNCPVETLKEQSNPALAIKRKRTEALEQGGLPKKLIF

Row | SMILES | IC50 [1] | IC50 [2] | IC50 [3] | IC50 [4] | IC50 (CDK9/cyclin T1) | IC50 (SH-SY5Y) | IC50 (HEK293)
1 | CC[C@H](CO)Nc1nc(NCc2ccccc2)c2ncc(C(C)C)n2n1 | 400 nM | 220 nM | 320 nM | 600 nM | 200 nM | 15400 nM | 26800 nM
2 | CC[C@@H](CO)Nc1nc(NCc2ccccc2)n2ncc(C(C)C)c2n1 | – | – | 130 nM | – | – | 2000 nM | 7200 nM
